According to ChEMBL document CHEMBL1795320, “Synthesis and antibacterial activity of novel 4″-O-benzimidazolyl clarithromycin derivatives” (2011):
≈ marks a conversion by molar mass, not a printed value.

Key:
Format in all cases: functional
Streptococcus pneumoniae [1] = assay: Antibacterial activity against erythromycin-resistant Streptococcus pneumoniae B1 expressing erm gene by broth microdilution method
Streptococcus pneumoniae [2] = assay: Antibacterial activity against erythromycin-resistant Streptococcus pneumoniae AB11 expressing erm and mef gene by broth microdilution method
Streptococcus pneumoniae [3] = assay: Antibacterial activity against erythromycin-resistant Streptococcus pneumoniae A22072 expressing mef gene by broth microdilution method
Staphylococcus aureus = assay: Antibacterial activity against erythromycin-susceptible Staphylococcus aureus ATCC 25923 by broth microdilution method
Streptococcus pneumoniae [4] = assay: Antibacterial activity against erythromycin-susceptible Streptococcus pneumoniae ATCC 49619 by broth microdilution method
Streptococcus pneumoniae [5] = assay: Ratio of clarithromycin MIC to compound MIC for erythromycin-resistant Streptococcus pneumoniae A22072 expressing mef gene
Streptococcus pneumoniae [6] = assay: Ratio of erythromycin MIC to compound MIC for erythromycin-resistant Streptococcus pneumoniae A22072 expressing mef gene

Structure (SMILES)	MIC (Streptococcus pneumoniae [1]) [µg/mL]	MIC (Streptococcus pneumoniae [2]) [µg/mL]	MIC (Streptococcus pneumoniae [3]) [µg/mL]	MIC (Staphylococcus aureus) [µg/mL]	MIC (Streptococcus pneumoniae [4]) [µg/mL]	Ratio (Streptococcus pneumoniae [5])	Ratio (Streptococcus pneumoniae [6])
CC[C@H]1OC(=O)[C@H](C)[C@@H](O[C@H]2C[C@@](C)(OC)[C@@H](OC(=O)NNC(=O)c3ccc4[nH]c(-c5ccc(Br)cc5)nc4c3)[C@H](C)O2)[C@H](C)[C@@H](O[C@@H]2O[C@H](C)C[C@H](N(C)C)[C@H]2O)[C@](C)(OC)C[C@@H](C)C(=O)[C@H](C)[C@@H](O)[C@]1(C)O	16 (≈ 14.5 µM)	16 (≈ 14.5 µM)	0.06 (≈ 0.0543 µM)	1 (≈ 0.905 µM)	0.25 (≈ 0.226 µM)		
CC[C@H]1OC(=O)[C@H](C)[C@@H](O[C@H]2C[C@@](C)(OC)[C@@H](OC(=O)NNC(=O)c3ccc4[nH]c(-c5cccc(Cl)c5O)nc4c3)[C@H](C)O2)[C@H](C)[C@@H](O[C@@H]2O[C@H](C)C[C@H](N(C)C)[C@H]2O)[C@](C)(OC)C[C@@H](C)C(=O)[C@H](C)[C@@H](O)[C@]1(C)O	16 (≈ 14.9 µM)	32 (≈ 29.7 µM)	0.25 (≈ 0.232 µM)	0.5 (≈ 0.464 µM)	0.03 (≈ 0.0279 µM)		
CCc1nc2cc(C(=O)NNC(=O)O[C@H]3[C@H](C)O[C@@H](O[C@H]4[C@H](C)[C@@H](O[C@@H]5O[C@H](C)C[C@H](N(C)C)[C@H]5O)[C@](C)(OC)C[C@@H](C)C(=O)[C@H](C)[C@@H](O)[C@](C)(O)[C@@H](CC)OC(=O)[C@@H]4C)C[C@@]3(C)OC)ccc2[nH]1	32 (≈ 32.7 µM)	64 (≈ 65.4 µM)	0.12 (≈ 0.123 µM)	0.5 (≈ 0.511 µM)	0.25 (≈ 0.256 µM)		
CC[C@H]1OC(=O)[C@H](C)[C@@H](O[C@H]2C[C@@](C)(OC)[C@@H](OC(=O)NNC(=O)c3ccc4[nH]c(-c5ccc(C(F)(F)F)cc5)nc4c3)[C@H](C)O2)[C@H](C)[C@@H](O[C@@H]2O[C@H](C)C[C@H](N(C)C)[C@H]2O)[C@](C)(OC)C[C@@H](C)C(=O)[C@H](C)[C@@H](O)[C@]1(C)O	8 (≈ 7.31 µM)	8 (≈ 7.31 µM)	0.06 (≈ 0.0548 µM)	0.5 (≈ 0.457 µM)	0.25 (≈ 0.228 µM)		
CC[C@H]1OC(=O)[C@H](C)[C@@H](O[C@H]2C[C@@](C)(OC)[C@@H](O)[C@H](C)O2)[C@H](C)[C@@H](O[C@@H]2O[C@H](C)C[C@H](N(C)C)[C@H]2O)[C@](C)(OC)C[C@@H](C)C(=O)[C@H](C)[C@@H](O)[C@]1(C)O [CLARITHROMYCIN]	128 (≈ 171 µM)	128 (≈ 171 µM)	4 (≈ 5.35 µM)	0.12 (≈ 0.16 µM)	0.12 (≈ 0.16 µM)		
CC[C@H]1OC(=O)[C@H](C)[C@@H](O[C@H]2C[C@@](C)(OC)[C@@H](OC(=O)NNC(=O)c3ccc4[nH]c(C)nc4c3)[C@H](C)O2)[C@H](C)[C@@H](O[C@@H]2O[C@H](C)C[C@H](N(C)C)[C@H]2O)[C@](C)(OC)C[C@@H](C)C(=O)[C@H](C)[C@@H](O)[C@]1(C)O	8 (≈ 8.3 µM)	64 (≈ 66.4 µM)	1 (≈ 1.04 µM)	0.5 (≈ 0.519 µM)	0.12 (≈ 0.124 µM)		
CC[C@H]1OC(=O)[C@H](C)[C@@H](O[C@H]2C[C@@](C)(OC)[C@@H](OC(=O)NNC(=O)c3ccc4[nH]c(-c5ccc(OC)cc5)nc4c3)[C@H](C)O2)[C@H](C)[C@@H](O[C@@H]2O[C@H](C)C[C@H](N(C)C)[C@H]2O)[C@](C)(OC)C[C@@H](C)C(=O)[C@H](C)[C@@H](O)[C@]1(C)O	4 (≈ 3.79 µM)	16 (≈ 15.1 µM)	0.03 (≈ 0.0284 µM)	0.25 (≈ 0.237 µM)	0.12 (≈ 0.114 µM)	133	267
CC[C@H]1OC(=O)[C@H](C)[C@@H](O[C@H]2C[C@@](C)(OC)[C@@H](OC(=O)NNC(=O)c3ccc4[nH]c(-c5ccc([N+](=O)[O-])cc5)nc4c3)[C@H](C)O2)[C@H](C)[C@@H](O[C@@H]2O[C@H](C)C[C@H](N(C)C)[C@H]2O)[C@](C)(OC)C[C@@H](C)C(=O)[C@H](C)[C@@H](O)[C@]1(C)O	16 (≈ 14.9 µM)	16 (≈ 14.9 µM)	0.03 (≈ 0.028 µM)	1 (≈ 0.934 µM)	0.25 (≈ 0.233 µM)	133	267
CC[C@H]1OC(=O)[C@H](C)[C@@H](O[C@H]2C[C@@](C)(OC)[C@@H](OC(=O)NNC(=O)c3ccc4[nH]c(-c5cccc([N+](=O)[O-])c5)nc4c3)[C@H](C)O2)[C@H](C)[C@@H](O[C@@H]2O[C@H](C)C[C@H](N(C)C)[C@H]2O)[C@](C)(OC)C[C@@H](C)C(=O)[C@H](C)[C@@H](O)[C@]1(C)O	64 (≈ 59.7 µM)	128 (≈ 119 µM)	1 (≈ 0.934 µM)	0.5 (≈ 0.467 µM)	0.25 (≈ 0.233 µM)		
CC[C@H]1OC(=O)[C@H](C)[C@@H](O[C@H]2C[C@@](C)(OC)[C@@H](OC(=O)NNC(=O)c3ccc4[nH]c(-c5ccccc5)nc4c3)[C@H](C)O2)[C@H](C)[C@@H](O[C@@H]2O[C@H](C)C[C@H](N(C)C)[C@H]2O)[C@](C)(OC)C[C@@H](C)C(=O)[C@H](C)[C@@H](O)[C@]1(C)O	8 (≈ 7.8 µM)	16 (≈ 15.6 µM)	0.03 (≈ 0.0292 µM)	0.25 (≈ 0.244 µM)	0.03 (≈ 0.0292 µM)	133	267
